Assay results reported in BigSolDB 2.1.

Cn1c([N+](=O)[O-])cnc1N1CCN(S(C)(=O)=O)C1=O
solubility (mole fraction)
Conditions | 293.2 K | 298.2 K | 303.2 K | 308.2 K | 313.2 K
in 1,4-butanediol | 0.000939 | 0.00132 | 0.00176 | 0.0024 | 0.00315
in 1,4-dioxane | 0.00814 | 0.0106 | 0.0127 | 0.0158 | 0.0189
in DMAc | 0.0363 | 0.0481 | 0.0617 | 0.0765 | 0.0963
in DMF | 0.0406 | 0.0542 | 0.0683 | 0.083 | 0.103
in DMSO | 0.057 | 0.0702 | 0.085 | 0.0987 | 0.114
in NMP | 0.0796 | 0.116 | 0.181 | 0.262 | 0.366
in ethanol | 0.000378 | 0.00048 | 0.000582 | 0.000726 | 0.000851
in ethylene glycol | 0.000879 | 0.00149 | 0.00228 | 0.00358 | 0.00558
in formamide | 0.0476 | 0.0591 | 0.0771 | 0.0938 | 0.109
in glycerin | 0.000743 | 0.000861 | 0.000984 | 0.00114 | 0.00128
in isopropanol | 0.000315 | 0.000368 | 0.000447 | 0.000527 | 0.000659
in methanol | 0.000481 | 0.000539 | 0.000624 | 0.000739 | 0.000871
in n-propanol | 0.000356 | 0.000436 | 0.000541 | 0.000673 | 0.000832
in propylene glycol | 0.00136 | 0.00232 | 0.00347 | 0.00538 | 0.00836
in water | 2.86e-06 | 3.21e-06 | 3.66e-06 | 4.24e-06 | 5.06e-06

Conditions | solubility (mole fraction)
in PEG-200, 293.2 K | 0.00829
in PEG-200, 298.2 K | 0.011
in PEG-200, 303.2 K | 0.0153
in PEG-200, 308.2 K | 0.0205
in PEG-200, 313.2 K | 0.0271
in PEG-400, 293.2 K | 0.0123
in PEG-400, 298.2 K | 0.0176
in PEG-400, 303.2 K | 0.0247
in PEG-400, 308.2 K | 0.0343
in PEG-400, 313.2 K | 0.0462
in PEG-600, 293.2 K | 0.015
in PEG-600, 298.2 K | 0.0218
in PEG-600, 303.2 K | 0.0302
in PEG-600, 308.2 K | 0.0429
in PEG-600, 313.2 K | 0.058
